Test results taken from patent US20200190101A1, “Composition Containing Novel Glutamic Acid Derivative And Block Copolymer, And Use Thereof” (Nippon Kayaku Kabushiki Kaisha, priority 2015, published 2020).

What was measured:
[1] = system: human renal cell cancer OS-RC-2 tumors; experiment: Test on antitumor effect of Synthesis Example 1, OS-RC-2 tumors; assay type: in vivo, SCID mice; conditions: two times at an interval of 14 days
Experimental: By an operation similar to that of Test Example 12, human renal cell cancer OS-RC-2 tumors were subcutaneously transplanted into SCID mice, and tumor engraftment was confirmed.
After the administration, the major axis (L) and the minor axis (W) of a tumor were measured using calipers at an interval of 2 to 3 days, the tumor volume was calculated by the formula: (L×W^2)/2, and the tumor volume change rate from the administration initiation day was determined.

[2] = Test on pharmacokinetics of Synthesis Example 1 (tissue concentrations, OS-RC-2 tumor-bearing mice); assay type: in vivo, SCID mice; conditions: for Unchanged drug concentration: value after 5 minutes, 5 mg/kg in terms of doxorubicin i.v.
Experimental: Human renal cell cancer OS-RC-2 tumors that had been subcutaneously subcultured in SCID mice were produced into blocks that measured about 2 mm on each side, and the blocks were subcutaneously transplanted into SCID mice using a trocar.
At time points of 5 minutes, 3 hours, and 24 hours after the administration, various tissues such as blood plasma, heart, liver, bone marrow, and tumor were collected under ether anesthesia.

Which “Antitumor effect (relative tumor volume) versus control drug” value ([1]; 20 mg/kg-administered group, i.v.) does the source give for `COc1cccc2c1C(=O)c1c(O)c3c(c(O)c1C2=O)C[C@@](O)(C(=O)CO)CC3OC1CC(NC(=O)OCc2ccc(NC(=O)CCC(N)C(=O)O)cc2)C(O)C(C)O1` (stereo partly drawn) [Synthesis Example 1, (((4-((S)-4-amino-4-carboxybutanamide)benzyl)oxy)carbonyl)doxorubicin] here?
The value was “antitumor effect that was equal to the effect of the doxorubicin hydrochloride-administered group (5 mg/kg)”.

What about the “Antitumor effect (relative tumor volume)” value ([1]; 5 or 20 mg/kg i.v.) of the same compound?
Its value is “dose-dependent antitumor effect”.

And the Unchanged drug concentration ([2]; Blood plasma)?
The Unchanged drug concentration was 9.36 μg/mL or g.

And the Unchanged drug concentration ([2]; Bone marrow)?
The Unchanged drug concentration was 0.336 μg/mL or g.

And the Unchanged drug concentration ([2]; Heart)?
The Unchanged drug concentration was 1.63 μg/mL or g.

And the Unchanged drug concentration ([2]; Liver)?
The Unchanged drug concentration was 60.6 μg/mL or g.

What about the Unchanged drug concentration ([2]; Tumor) of the same compound?
Its Unchanged drug concentration is 0.192 μg/mL or g.

What about the “Concentration of doxorubicin produced, compared to doxorubicin hydrochloride” value ([2]; blood plasma, liver, bone marrow, and heart (GGT expressed at a low level)) of the same compound?
Its value is “low”.

And the “Concentration of doxorubicin produced, compared to doxorubicin hydrochloride” value ([2]; tumor (GGT expressed at a high level))?
Its value is “high”.
